Experiment [1] relates to Radical scavenging activity. Put plainly: Antioxidant activity assessed as DPPH radical scavenging activity at 25 ug/mL. Format: functional. (DPPH is a stable violet radical that fades when it is reduced.)
Experiment [2] relates to Radical scavenging activity. The experiment in a line: Antioxidant activity assessed as DPPH radical scavenging activity at 50 ug/mL. Format: functional.
Experiment [3] can be described thus: Antioxidant activity assessed as inhibition of peroxidation of linolenic acid at 7.4 ug/mL by TBARS assay. Format: functional.
Experiment [4] is described as follows: Antioxidant activity assessed as inhibition of peroxidation of linolenic acid at 37 ug/mL by TBARS assay. Format: functional.
Experiment [5] relates to Radical scavenging activity. The experiment in a line: Antioxidant activity assessed as DPPH radical scavenging activity at 100 ug/mL. Format: functional.
The subject of experiment [6] is Radical scavenging activity. The experiment in a line: Antioxidant activity assessed as DPPH radical scavenging activity at 500 ug/mL. Format: functional.
For experiment [7], the system named is Aspergillus pseudoglaucus. The experiment in a line: Antifungal activity against Eurotium repens 50 ug/disk by agar diffusion method. Format: functional. For orientation: In agar diffusion tests the substance spreads into inoculated agar from a disc or well.
For experiment [8], the target named is Human immunodeficiency virus type 1 reverse transcriptase (Human immunodeficiency virus 1) (UniProt Q72547). Put plainly: Inhibition of HIV1 reverse transcriptase assessed as residual enzyme activity at 66 ug/mL.
The next experiment has as its system Mycotypha microspora. The experiment in a line: Antifungal activity against Mycotypha microspora 50 ug/disk by agar diffusion method. Format: functional, organism-based.
Experiment [9] concerns the target Tyrosine-protein kinase Lck (Homo sapiens) (UniProt P06239). Put plainly: Inhibition of p56-LCK assessed as residual enzyme activity at 200 ug/mL.
The next experiment concerns [Chlorella] fusca. The experiment in a line: Antimicrobial activity against Chlorella fusca 50 ug/disk by agar diffusion method. Conditions: Scenedesmus fuscus. Format: functional, organism-based.
For a further experiment, the system named is Microbotryum violaceum. Put plainly: Antifungal activity against Microbotryum violaceum 50 ug/disk by agar diffusion method. Format: functional.
Another experiment relates to Escherichia coli. The experiment in a line: Antibacterial activity against Escherichia coli 50 ug/disk by agar diffusion method. Format: functional, organism-based.
The next experiment has as its system Priestia megaterium. The experiment in a line: Antibacterial activity against Bacillus megaterium 50 ug/disk by agar diffusion method. Format: functional.

Data on four compounds can be found in ChEMBL document CHEMBL1146522, “Two new xanthone derivatives from the algicolous marine fungus Wardomyces anomalus” (2003).

Activity calls are given as the source filed them. The rule behind the calls is not given here.

Sequence of Tyrosine-protein kinase Lck (Homo sapiens) (P06239 2-509 limits assumed): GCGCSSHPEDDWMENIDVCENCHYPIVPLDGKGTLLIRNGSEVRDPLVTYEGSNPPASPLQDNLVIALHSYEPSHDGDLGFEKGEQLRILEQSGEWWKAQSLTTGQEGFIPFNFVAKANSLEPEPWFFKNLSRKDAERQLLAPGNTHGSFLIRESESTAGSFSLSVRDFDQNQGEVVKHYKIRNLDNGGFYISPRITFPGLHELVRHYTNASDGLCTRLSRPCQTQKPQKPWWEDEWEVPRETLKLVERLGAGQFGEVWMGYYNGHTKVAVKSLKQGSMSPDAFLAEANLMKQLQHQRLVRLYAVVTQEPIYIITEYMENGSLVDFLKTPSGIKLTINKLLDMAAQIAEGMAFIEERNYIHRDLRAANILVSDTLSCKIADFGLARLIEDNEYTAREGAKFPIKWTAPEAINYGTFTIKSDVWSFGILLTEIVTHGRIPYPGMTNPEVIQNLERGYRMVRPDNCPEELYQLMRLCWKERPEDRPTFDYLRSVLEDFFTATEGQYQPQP

The inhibition is the drop in the measured response relative to a control, in per cent. Take `Cc1cc(C(C)(C)C)c(O)c(C(C)(C)C)c1`: the Activity in experiment [1] turned out to be 73.4%; in [2] it was 83.1%; in experiment [5], 89.1%; in experiment [6] it was 87.8%. Moreover, the inhibition is 42.8% in experiment [3] and 48.5% in [4].

Take `O=C(O)c1ccc(CO)o1`: the result (in experiment [7]; with Mycotypha microspora; in experiment [Chlorella] fusca; in the experiment with Microbotryum violaceum; with Escherichia coli; with Priestia megaterium) was inactive. In addition, the Activity in experiment [8] was determined as 98.3%; in experiment [1] it was 30.7%; in experiment [9] it was 0%; in experiment [2], 53.4%; in [5] it was 87.7%; in experiment [6], 97%. The inhibition in experiment [3] was determined as 2.6%; in [4] it was 7.4%.

For `Cc1c(O)c(O)cc2oc3cc(O)cc(O)c3c(=O)c12` [ANOMALIN A], the Activity was 82.2% in experiment [8]; 94.7% in experiment [1]; 0% in experiment [9]; 94.8% in experiment [2]; 95.2% in [5]; 95.4% in experiment [6]. Besides, the inhibition in experiment [3] turned out to be 17%; in experiment [4], 37%. The result (in experiment [Chlorella] fusca; with Escherichia coli; in the experiment with Priestia megaterium) was inactive. Moreover, the “inhibition zone (IZ)” value in the experiment with Microbotryum violaceum worked out at 1 mm.

On to `Cc1cc(O)cc2oc3cc(O)cc(O)c3c(=O)c12` [NORLICHEXANTHONE], for which the “inhibition zone (IZ)” value (in experiment [7]; in the experiment on Priestia megaterium) was 1 mm in each case. Further, the Activity in experiment [8] was 82.9%; in experiment [1], 6.2%; in experiment [9] it was 0%; in experiment [2], 12.9%; in [5] it was 25.3%; in experiment [6], 90.6%. The inhibition in experiment [3] was -7.4%. Besides, the outcome in experiment [Chlorella] fusca was inactive.
